# Measurements: PubChem BioAssay AID2060511 (Molecular Pharmacology Branch, DTP, NCI, 2025)
# System: 422866-222-R5-J1-PDC spheroids with HUVEC/MSC, viability
# Assay: Anticancer human tumor 422866-222-R5-J1-PDC patient-derived pancreatic adenocarcinoma cell line growth inhibition [GQUAD]
# Details: for IC50: curve of first compound; for viability, T/C: stronger effect = lower value
# Outline: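 Viability of tumor cells grown as complex spheroids with endothelial and stromal cells, exposed to drug combinations. Top concentration at or near clinical Cmax (else 10 microM), diluted in half-log increments.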
# [1] = second compound 0.0316 µM, first compound 0.0316 µM
# [2] = second compound 0.0316 µM, first compound 0.1 µM
# [3] = second compound 0.0316 µM, first compound 0.316 µM
# [4] = second compound 0.0316 µM, first compound 1 µM
# [5] = second compound 0.0316 µM, first compound 3.16 µM
# [6] = second compound 0.0316 µM, first compound 10 µM
# [7] = second compound 0.1 µM, first compound 0.0316 µM
# [8] = second compound 0.1 µM, first compound 0.1 µM
# [9] = second compound 0.1 µM, first compound 0.316 µM
# [10] = second compound 0.1 µM, first compound 1 µM
# [11] = second compound 0.1 µM, first compound 3.16 µM
# [12] = second compound 0.1 µM, first compound 10 µM
# [13] = second compound 0.316 µM, first compound 0.0316 µM
# [14] = second compound 0.316 µM, first compound 0.1 µM
# [15] = second compound 0.316 µM, first compound 0.316 µM
# [16] = second compound 0.316 µM, first compound 1 µM
# [17] = second compound 0.316 µM, first compound 3.16 µM
# [18] = second compound 0.316 µM, first compound 10 µM
# [19] = second compound 1 µM, first compound 0.0316 µM
# [20] = second compound 1 µM, first compound 0.1 µM
# [21] = second compound 1 µM, first compound 0.316 µM
# [22] = second compound 1 µM, first compound 1 µM
# [23] = second compound 1 µM, first compound 3.16 µM
# [24] = second compound 1 µM, first compound 10 µM
# [25] = second compound 3.16 µM, first compound 0.0316 µM
# [26] = second compound 3.16 µM, first compound 0.1 µM
# [27] = second compound 3.16 µM, first compound 0.316 µM
# [28] = second compound 3.16 µM, first compound 1 µM
# [29] = second compound 3.16 µM, first compound 3.16 µM
# [30] = second compound 3.16 µM, first compound 10 µM
# [31] = second compound 10 µM, first compound 0.0316 µM
# [32] = second compound 10 µM, first compound 0.1 µM
# [33] = second compound 10 µM, first compound 0.316 µM
# [34] = second compound 10 µM, first compound 1 µM
# [35] = second compound 10 µM, first compound 3.16 µM
# [36] = second compound 10 µM, first compound 10 µM
# 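Note: spheroids exposed to compounds for seven days before reading.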
# 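Throughout, for viability, T/C: percent viability relative to DMSO vehicle control taken as 100%.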
structure (smiles),measurement,setting,value
CCCS(=O)(=O)Nc1ccc(F)c(C(=O)c2c[nH]c3ncc(-c4ccc(Cl)cc4)cc23)c1F + Cc1cnc(CNC(=O)c2c(=O)c3ccc(N4CCCN(C)CC4)nc3n3c2sc2ccccc23)cn1,IC50,second compound 0.0316 µM,> 10 µM
same,IC50,second compound 0.1 µM,> 10 µM
same,IC50,second compound 0.316 µM,> 10 µM
same,IC50,second compound 1 µM,> 10 µM
same,IC50,second compound 3.16 µM,> 10 µM
same,IC50,second compound 10 µM,> 10 µM
same,"viability, T/C",[1],96.8%
same,"viability, T/C",[2],89.2%
same,"viability, T/C",[3],117%
same,"viability, T/C",[4],109%
same,"viability, T/C",[5],145%
same,"viability, T/C",[6],54.9%
same,"viability, T/C",[7],93.9%
same,"viability, T/C",[8],87.3%
same,"viability, T/C",[9],115%
same,"viability, T/C",[10],92%
same,"viability, T/C",[11],109%
same,"viability, T/C",[12],84.7%
same,"viability, T/C",[13],78.6%
same,"viability, T/C",[14],90.4%
same,"viability, T/C",[15],90%
same,"viability, T/C",[16],115%
same,"viability, T/C",[17],102%
same,"viability, T/C",[18],86.6%
same,"viability, T/C",[19],73.2%
same,"viability, T/C",[20],80.7%
same,"viability, T/C",[21],87.2%
same,"viability, T/C",[22],110%
same,"viability, T/C",[23],111%
same,"viability, T/C",[24],86%
same,"viability, T/C",[25],72.9%
same,"viability, T/C",[26],80.9%
same,"viability, T/C",[27],85.5%
same,"viability, T/C",[28],93.7%
same,"viability, T/C",[29],95.1%
same,"viability, T/C",[30],88.7%
same,"viability, T/C",[31],69.2%
same,"viability, T/C",[32],76.2%
same,"viability, T/C",[33],109%
same,"viability, T/C",[34],86.8%
same,"viability, T/C",[35],96%
same,"viability, T/C",[36],94.2%
Cc1cccc(N(C)C(=O)C2C(O)CCN2c2nc(C)cc(C(F)(F)F)c2C#N)c1 (stereo unspecified) + Cc1cnc(CNC(=O)c2c(=O)c3ccc(N4CCCN(C)CC4)nc3n3c2sc2ccccc23)cn1,IC50,second compound 0.0316 µM,> 10 µM
same,IC50,second compound 0.1 µM,> 10 µM
same,IC50,second compound 0.316 µM,> 10 µM
same,IC50,second compound 1 µM,> 10 µM
same,IC50,second compound 3.16 µM,> 10 µM
same,IC50,second compound 10 µM,> 10 µM
same,"viability, T/C",[1],95%
same,"viability, T/C",[2],82.2%
same,"viability, T/C",[3],83.9%
same,"viability, T/C",[4],92.8%
same,"viability, T/C",[5],90.5%
same,"viability, T/C",[6],88.7%
same,"viability, T/C",[7],95.9%
same,"viability, T/C",[8],86.3%
same,"viability, T/C",[9],86.8%
same,"viability, T/C",[10],83.7%
same,"viability, T/C",[11],102%
same,"viability, T/C",[12],90.9%
same,"viability, T/C",[13],85.8%
same,"viability, T/C",[14],90.5%
same,"viability, T/C",[15],98.9%
same,"viability, T/C",[16],83.7%
same,"viability, T/C",[17],85.3%
same,"viability, T/C",[18],85.5%
same,"viability, T/C",[19],82%
same,"viability, T/C",[20],85.8%
same,"viability, T/C",[21],86.1%
same,"viability, T/C",[22],79.7%
same,"viability, T/C",[23],94.1%
same,"viability, T/C",[24],91.6%
same,"viability, T/C",[25],73.7%
same,"viability, T/C",[26],80%
same,"viability, T/C",[27],86.1%
same,"viability, T/C",[28],79.7%
same,"viability, T/C",[29],96.5%
same,"viability, T/C",[30],78.8%
same,"viability, T/C",[31],75.3%
same,"viability, T/C",[32],75.6%
same,"viability, T/C",[33],75%
same,"viability, T/C",[34],86.5%
same,"viability, T/C",[35],89%
same,"viability, T/C",[36],77.7%
COc1cccc2c1C(=O)c1c(O)c3c(c(O)c1C2=O)CC(O)(C(=O)CO)CC3OC1CC(N)C(O)C(C)O1 (stereo unspecified) + Cc1[nH]c2ccc(F)cc2c1-c1nc2c3cccnc3c3ncccc3c2[nH]1,IC50,second compound 0.0316 µM,0.474 µM
same,IC50,second compound 0.1 µM,0.782 µM
same,IC50,second compound 0.316 µM,0.639 µM
same,IC50,second compound 1 µM,0.463 µM
same,IC50,second compound 3.16 µM,0.349 µM
same,IC50,second compound 10 µM,0.529 µM
same,"viability, T/C",[1],108%
same,"viability, T/C",[2],70.2%
same,"viability, T/C",[3],63.6%
same,"viability, T/C",[4],37.3%
same,"viability, T/C",[5],30%
same,"viability, T/C",[6],34.7%
same,"viability, T/C",[7],113%
same,"viability, T/C",[8],65.6%
same,"viability, T/C",[9],69.2%
same,"viability, T/C",[10],53.4%
same,"viability, T/C",[11],34%
same,"viability, T/C",[12],35%
same,"viability, T/C",[13],92%
same,"viability, T/C",[14],67.9%
same,"viability, T/C",[15],54%
same,"viability, T/C",[16],55.5%
same,"viability, T/C",[17],31.7%
same,"viability, T/C",[18],35.9%
same,"viability, T/C",[19],93.9%
same,"viability, T/C",[20],65.7%
same,"viability, T/C",[21],54.5%
same,"viability, T/C",[22],46.3%
same,"viability, T/C",[23],37.2%
same,"viability, T/C",[24],36.1%
same,"viability, T/C",[25],73.4%
same,"viability, T/C",[26],65.6%
same,"viability, T/C",[27],48.1%
same,"viability, T/C",[28],45.8%
same,"viability, T/C",[29],31.6%
same,"viability, T/C",[30],37.8%
same,"viability, T/C",[31],77.7%
same,"viability, T/C",[32],64.9%
same,"viability, T/C",[33],52.5%
same,"viability, T/C",[34],48%
same,"viability, T/C",[35],34.3%
same,"viability, T/C",[36],30.4%
